Read-outs that look alike come from different tables or passages of the source.
Target: T1, hCCR4 (Chem5-hCCR4 cells) (Homo sapiens, UniProt P51679)
T1 sequence (P51679 1-360): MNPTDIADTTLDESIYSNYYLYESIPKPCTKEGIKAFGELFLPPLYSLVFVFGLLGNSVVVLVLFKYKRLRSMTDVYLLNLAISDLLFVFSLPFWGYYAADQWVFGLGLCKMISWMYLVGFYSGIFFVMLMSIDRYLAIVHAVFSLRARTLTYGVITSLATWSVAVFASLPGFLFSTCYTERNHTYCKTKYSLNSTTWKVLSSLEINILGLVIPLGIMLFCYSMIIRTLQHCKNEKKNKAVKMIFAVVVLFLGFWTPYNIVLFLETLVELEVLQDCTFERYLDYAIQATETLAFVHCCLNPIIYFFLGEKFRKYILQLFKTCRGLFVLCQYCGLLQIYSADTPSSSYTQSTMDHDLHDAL
Assay: Calcium flux assay (CCL22-stimulated, FLIPR Calcium 6 dye)
Assay type: cell-based
Settings: read-out: Potency (IC50)
Method: Calcium Flux Assay. Compounds were evaluated in a calcium flux assay substantially performed as follows. Chem5-hCCR4 cells (EMD Millipore, Hayward, CA; HTS009C) were cultured under standard conditions and frozen in aliquots of 10×10^6 cells/mL. The day prior to compound testing, a vial was rapidly thawed and pipetted into 20 mL media (DMEM+10% FBS+1% Pen-Strep+1% L-glutamine). Cells were harvested by centrifugation and re-suspended in fresh culture medium. 25 μL of cell suspension was seeded into 384-well plates (Corning, Tewksbury, MA; CellBind with black wall/clear bottom). The plates were centrifuged at 300 g for 10 seconds and incubated overnight at 37° C. and 5% CO2. The day of compound testing, media was removed from the plates and 25 μL serum free media was added to each well. Plates were returned to the incubator for 2 h. 25 μL assay buffer (Hank's balanced salt solution+20 mM HEPES pH 7.4) containing FLIPR Calcium 6 dye (Molecular Devices, Sunnyvale, CA; #R8191) and probenecid (2.5 mM) was added to each well and incubated at 37° C. and 5% CO2 for 2 h. Compounds in DMSO were added to the plates using an HP D300e digital dispenser, and all wells were normalized to contain 0.25 μL (0.5%) DMSO. Plates were incubated for 1 hour at 37° C. and 5% CO2. CCL22 (Peprotech; Rockyhill, NJ) was diluted in assay buffer containing 0.1% BSA to 7.5 nM (corresponding to 5×EC80 of 1.5 nM).
Assay plates and working solution of CCL22 were transferred to the FlexStation plate reader (Molecular Devices) at 37° C. for 5 min of equilibration. Fluorescence recordings at 485 excitation/525 emission were performed at 2.5 second intervals. At t=16 seconds, 12.5 μL of CCL22 solution was added to each well and reads continued for 30 seconds at 2.5 second intervals. The minimum fluorescence (Fmin) was calculated by averaging the reads prior to ligand addition and the change in fluorescence (ΔF) was calculated by subtracting the Fmin from the average of the reads following ligand addition. The response ΔF/Fmin was plotted as a function of the compound concentration and the IC50 values were determined by non-linear regression analysis using a 4-parameter fit in either PRISM software (GraphPad; La Jolla, CA) or Dotmatics Browser.

IC50 (Table 3, CCL22 1.5 nM) [nM] | Structure (SMILES) | also measured
– | CCc1nc(N2CC([C@H]3CCCN(C4CC(C)(C(=O)O)C4)C3)C2)nc(N[C@H](C)c2ccc(Cl)cc2Cl)c1Cl (single isomer, unassigned) [Example 77] | IC50 (Table 5, CCL22 1.5 nM): < 100 nM
< 100 | C[C@@H](Nc1nc(N2CC([C@H]3CCCN(CCO)C3)C2)ncc1Br)c1ccc(F)cc1Cl [Example 43, 2-((R)-3-(1-(5-bromo-4-(((R)-1-(2-chloro-4-fluorophenyl)ethyl)amino)pyrimidin-2-yl)azetidin-3-yl)piperidin-1-yl)ethan-1-ol] | –
< 100 | CCOC(=O)c1cnc(N2CC([C@H]3CCCN(CCO)C3)C2)nc1N[C@H](C)c1ccc(Cl)cc1Cl [Example 32, ethyl 4-(((R)-1-(2,4-dichlorophenyl)ethyl)amino)-2-(3-((R)-1-(2-hydroxyethyl)piperidin-3-yl)azetidin-1-yl)pyrimidine-5-carboxylate] | –
> 500 | C[C@]1(C(=O)O)C[C@H](N2CCC[C@H](C3CN(c4ncc(Cl)c(NCc5ccc(Cl)cc5Cl)n4)C3)C2)C1 [Example 21, (1R,3r)-3-((R)-3-(1-(5-chloro-4-((2,4-dichlorobenzyl)amino)pyrimidin-2-yl)azetidin-3-yl)piperidin-1-yl)-1-methylcyclobutane-1-carboxylic acid] | –
– | C[C@@H](Nc1nc(N2CC([C@H]3CCCN(C4CC(C)(C(=O)O)C4)C3)C2)cnc1C#N)c1ccc(Cl)cc1Cl (stereo partly drawn) [Example 51, 3-[(1S,3R)-3-[1-[5-cyano-6-[[(1R)-1-(2,4-dichlorophenyl)ethyl]amino]pyrazin-2-yl]azetidin-3-yl]-1-piperidyl]-1-methyl-cyclobutanecarboxylic acid; 2,2,2-trifluoroacetic acid] | IC50 (Table 4, CCL22 1.5 nM): > 500 nM
– | C[C@@H](Nc1nc(N2CC([C@H]3CCCN(C4CC(C)(C(=O)O)C4)C3)C2)nc2scnc12)c1ccc(Cl)cc1Cl (single isomer, unassigned) [Example 71, trifluoroacetic acid] | IC50 (Table 5, CCL22 1.5 nM): < 100 nM
> 500 | C[C@@H](Nc1cnc(C#N)c(N2CC([C@H]3CCCN([C@H]4C[C@@H](C(=O)O)C4)C3)C2)n1)c1ccc(Cl)cc1Cl [Example 4, (1S,3s)-3-((R)-3-(1-(3-cyano-6-(((R)-1-(2,4-dichlorophenyl)ethyl)amino)pyrazin-2-yl)azetidin-3-yl)piperidin-1-yl)cyclobutane-1-carboxylic acid] | –
100 to 500 | C[C@@H](Nc1nc(N2CC([C@H]3CCCN(C4CCCC4C(=O)O)C3)C2)cnc1C#N)c1ccc(Cl)cc1Cl (stereo partly drawn) [Example 6, 2-((R)-3-(1-(5-cyano-6-(((R)-1-(2,4-dichlorophenyl)ethyl)amino)pyrazin-2-yl)azetidin-3-yl)piperidin-1-yl)cyclopentane-1-carboxylic acid] | –
< 100 | C[C@@H](Nc1nc(N2CC([C@H]3CCCN([C@H]4C[C@](C)(C(=O)O)C4)C3)C2)nc2sccc12)c1ccc(Cl)cc1Cl [Example 29, (1R,3r)-3-((R)-3-(1-(4-(((R)-1-(2,4-dichlorophenyl)ethyl)amino)thieno[2,3-d]pyrimidin-2-yl)azetidin-3-yl)piperidin-1-yl)-1-methylcyclobutane-1-carboxylic acid] | –
– | C[C@@H](Nc1nc(N2CC([C@H]3CCCN(CCO)C3)C2)nc2sccc12)c1ccc(Cl)cc1Cl [Example 61, 2-[(3R)-3-[1-[4-[[(1R)-1-(2,4-dichlorophenyl)ethyl]amino]thieno[2,3-d]pyrimidin-2-yl]azetidin-3-yl]-1-piperidyl]ethanol; 2,2,2-trifluoroacetic acid] | IC50 (Table 5, CCL22 1.5 nM): < 100 nM
< 100 | Cc1cnc(N2CC([C@H]3CCCN([C@H]4C[C@@H](C(=O)O)C4)C3)C2)nc1N[C@H](C)c1ccc(Cl)cc1Cl [Example 17, (1S,3s)-3-((R)-3-(1-(4-(((R)-1-(2,4-dichlorophenyl)ethyl)amino)-5-methylpyrimidin-2-yl)azetidin-3-yl)piperidin-1-yl)cyclobutane-1-carboxylic acid] | –
100 to 500 | Cc1cnc(N2CC([C@H]3CCCN([C@H]4C[C@](C)(C(=O)O)C4)C3)C2)nc1N[C@H](C)c1ccc(Cl)cc1Cl [Example 36, (1R,3r)-3-((R)-3-(1-(4-(((R)-1-(2,4-dichlorophenyl)ethyl)amino)-5-methylpyrimidin-2-yl)azetidin-3-yl)piperidin-1-yl)-1-methylcyclobutane-1-carboxylic acid] | –
– | C[C@@H](Nc1nc(N2CC([C@H]3CCCN(CC(=O)N4CCCC4)C3)C2)ncc1Cl)c1ccc(Cl)cc1Cl [Example 56, 2-[(3R)-3-[1-[5-chloro-4-[[(1R)-1-(2,4-dichlorophenyl)ethyl]amino]pyrimidin-2-yl]azetidin-3-yl]-1-piperidyl]-1-pyrrolidin-1-yl-ethanone; 2,2,2-trifluoroacetic acid] | IC50 (Table 5, CCL22 1.5 nM): 100 to 500 nM
< 100 | C[C@@H](Nc1nc(N2CC([C@H]3CCCN([C@H]4C[C@](C)(C(=O)O)C4)C3)C2)ncc1Br)c1ccc(F)cc1Cl [Example 45, (1R,3r)-3-((R)-3-(1-(5-bromo-4-(((R)-1-(2-chloro-4-fluorophenyl)ethyl)amino)pyrimidin-2-yl)azetidin-3-yl)piperidin-1-yl)-1-methylcyclobutane-1-carboxylic acid] | –
> 500 | C[C@@H](Nc1nc(N2CC([C@H]3CCCN(CCO)C3)C2)cnc1C#N)c1ccc(S(C)(=O)=O)cc1Cl [Example 7, 3-(((R)-1-(2-chloro-4-(methylsulfonyl)phenyl)ethyl)amino)-5-(3-((R)-1-(2-hydroxyethyl)piperidin-3-yl)azetidin-1-yl)pyrazine-2-carbonitrile] | –
– | C[C@@H](Nc1nc(N2CC([C@H]3CCCN([C@H]4C[C@](C)(C(=O)O)C4)C3)C2)ncc1C(O)C1CC1)c1ccc(Cl)cc1Cl (stereo partly drawn) [Example 70, 3-[(3R)-3-[1-[5-[cyclopropyl(hydroxy)methyl]-4-[[(1R)-1-(2,4-dichlorophenyl)ethyl]amino]pyrimidin-2-yl]azetidin-3-yl]-1-piperidyl]-1-methyl-cyclobutanecarboxylic acid; 2,2,2-trifluoroacetic acid] | IC50 (Table 5, CCL22 1.5 nM): < 100 nM
– | Cc1csc2nc(N3CC([C@H]4CCCN(C5CC(C)(C(=O)O)C5)C4)C3)nc(N[C@H](C)c3ccc(Cl)cc3Cl)c12 (single isomer, unassigned) [Example 74, trifluoroacetic acid] | IC50 (Table 5, CCL22 1.5 nM): < 100 nM
– | C[C@@H](Nc1nc(N2CC([C@H]3CCCN(CCO)C3)C2)cnc1C#N)c1ccc(Cl)cc1S(C)(=O)=O [Example 49, 3-[[(1R)-1-(4-chloro-2-methylsulfonyl-phenyl)ethyl]amino]-5-[3-[(3R)-1-(2-hydroxyethyl)-3-piperidyl]azetidin-1-yl]pyrazine-2-carbonitrile; 2,2,2-trifluoroacetic acid] | IC50 (Table 4, CCL22 1.5 nM): > 500 nM
< 100 | C[C@@H](Nc1nc(N2CC([C@H]3CCCN([C@H]4C[C@@](C)(C(=O)O)C4)C3)C2)nc2ccccc12)c1ccc(Cl)cc1Cl [Example 27, (1S,3s)-3-((R)-3-(1-(4-(((R)-1-(2,4-dichlorophenyl)ethyl)amino)quinazolin-2-yl)azetidin-3-yl)piperidin-1-yl)-1-methylcyclobutane-1-carboxylic acid] | –
> 500 | C[C@@H](Nc1nc(N2CC([C@H]3CCCN(CCO)C3)C2)ncc1C(=O)O)c1ccc(Cl)cc1Cl [Example 33, 4-(((R)-1-(2,4-dichlorophenyl)ethyl)amino)-2-(3-((R)-1-(2-hydroxyethyl)piperidin-3-yl)azetidin-1-yl)pyrimidine-5-carboxylic acid] | –
> 500 | C[C@@H](Nc1nc(N2CC([C@H]3CCCN(CCO)C3)C2)ncc1C#N)c1ccc(S(C)(=O)=O)cc1Cl [Example 42, 4-(((R)-1-(2-chloro-4-(methylsulfonyl)phenyl)ethyl)amino)-2-(3-((R)-1-(2-hydroxyethyl)piperidin-3-yl)azetidin-1-yl)pyrimidine-5-carbonitrile] | –

Source: patent US12098139B2, “Chemokine receptor modulators and uses thereof” (RAPT Therapeutics, Inc., priority 2018, dated 2024)
